{"source": "patent US20240252493A1", "about": "“Apelin Receptor Modulators for Treating Age-Related Muscle Conditions” (BIOAGE LABS, INC., priority 2021, published 2024)", "tested_on": "tibialis of aged mice", "experiment": "CTX-induced muscle injury: histology (cross-sectional area, centrally nucleated fibers)", "assay_type": "in vivo", "description": "Impairment of muscle regeneration can contribute to age-related muscle weakness. This is particularly true in aged individuals who engage in physical activity. Exercise-induced muscle hypertrophy is linked to the capacity of muscle stem cells to be activated and promote regeneration.\nMice were i.p injected with buprenorphine (Centravet, 0.1 mg/kg) 30 minutes before injury and the day after. The day of the injury, mice were anesthetized with isoflurane inhalation and hindlimbs were shaved. Then, 10 μM of cardiotoxin (CTX, Latoxan, #L8102) was injected through two injections of 25 μl into the left tibialis muscle and two injections of 50 μl into the left gastrocnemius muscle, using a 22-gauge needle (Hamilton). Mice were euthanized 3 and 7 days after injury by cervical dislocation, muscles (PBS- and CTX-injected) were cut in two parts, one being snap frozen into liquid nitrogen for total RNA extraction and the other part being embedded into OCT, frozen in isopentane cooled with liquid nitrogen for histological analysis.\nMouse muscle samples were dissected and cryopreserved in OCT frozen in liquid nitrogen cooled isopentane. Samples were then sectioned at 10 μm on a cryostat and post-fixed with 4% Paraformaldehyde (PFA) for 15min at room temperature. Muscle frozen sections (10 μm) were stained by helaun/eosin or immune-labeled for laminin (Abcam) and embryonic myosin. Briefly, sections were blocked 1 h in PBS plus 4% BS(a), 2% goat serum, 0.01% Triton X-100. Sections were then incubated overnight with primary antibodies. After washes in PBS, sections were incubated 1 h with secondary antibodies anti-Ig2b AF 488 (Life Technology). Slides were finally mounted in ProLong Gold antifade Reagent (Molecular probes by Life Technology) with DAPI. Images were captured using a digital camera (Nanozoomer, Hamamatsu) attached to a motorized fluorescence microscope or using Olympus VS120 Virtual Microscopy Slide Scanning System. The area covered by eMHC-positive fibers and degenerated area was determined manually across the entire sections using the VS-ASW FL software measurement tools. The size of myofibers with central nuclei was calculated from laminin/DAPI staining on all fibers of the section and area determination were performed across the entire sections, using an automated image processing algorithm developed internally using the MetaXpress software (Molecular Devices).", "note": "“Also recorded” adds a separate entry of the source.", "data": [{"smiles": "COc1cccc(OC)c1-n1c(NS(=O)(=O)[C@@H](C)[C@H](C)c2ncc(C)cn2)nnc1-c1cncc(C)c1", "note": "[BGE-105, (2S,3R)—N-(4-(2,6-dimethoxyphenyl)-5-(5-methyl-3-pyridinyl)-4H-1,2,4-triazol-3-yl)-3-(5-methyl-2-pyrimidinyl)-2-butanesulfonamide]", "values": [{"measurement": "amount of centrally nucleated myofibers (CNM)", "setting": "18-months old mice after cardiotoxin, apelin 0.5 μmol/kg/day, BGE-105 200 mg/kg/day", "result": "significant increase"}, {"measurement": "central nuclei in regenerating fibers", "setting": "aged mice after cardiotoxin, BGE-105 50 or 200 mg/kg/day", "result": "promoted accumulation of central nuclei; also recorded: dose-dependent increase in central nucleated fibers"}, {"measurement": "cross-sectional area of the tibialis", "setting": "aged mice, 3 and 7 days post cardiotoxin, apelin, BGE-105 50 and 200 mg/kg/d", "result": "positive effect; also recorded: significant increase in cross sectional area"}]}]}
